Measured values from ChEMBL document CHEMBL3600359, “Verruculides A and B, two new protein tyrosine phosphatase 1B inhibitors from an Indonesian ascidian-derived Penicillium verruculosum” (Bioorg Med Chem Lett, 2015).
Activity calls are given as the source filed them. The calls are words filed in the database; no cut-off is given here.

How the values were obtained:
[1] = biological target: T1, Tyrosine-protein phosphatase non-receptor type 1 (Homo sapiens, UniProt P18031); test: Inhibition of PTP1B (unknown origin)
T1 sequence (P18031 whole entry): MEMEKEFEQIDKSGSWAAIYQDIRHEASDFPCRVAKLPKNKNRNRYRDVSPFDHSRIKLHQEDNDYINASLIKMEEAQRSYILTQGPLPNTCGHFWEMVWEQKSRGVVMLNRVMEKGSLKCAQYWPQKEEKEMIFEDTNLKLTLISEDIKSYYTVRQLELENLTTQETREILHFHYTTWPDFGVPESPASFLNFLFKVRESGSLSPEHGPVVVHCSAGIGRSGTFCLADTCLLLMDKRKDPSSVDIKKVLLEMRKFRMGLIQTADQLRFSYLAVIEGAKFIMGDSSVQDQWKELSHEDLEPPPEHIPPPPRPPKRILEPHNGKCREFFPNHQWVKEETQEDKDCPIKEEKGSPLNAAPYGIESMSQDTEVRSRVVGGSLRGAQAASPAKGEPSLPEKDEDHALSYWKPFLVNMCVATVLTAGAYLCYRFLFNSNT

[2] = biological target: T2, Tyrosine-protein phosphatase non-receptor type 1 (Homo sapiens) (UniProt P18031); conditions: 23.1 uM
T2 sequence (whole entry): T1 sequence (P18031 whole entry)
Description: Inhibition of PTP1B (unknown origin) at 23.1 uM

[3] = biological target: T2, Tyrosine-protein phosphatase non-receptor type 1 (Homo sapiens); test: Inhibition of PTP1B (unknown origin) at 20.7 uM

Row | Compound | IC50 [1] | other results
1 | C[C@@H]1Cc2c3c(cc(O)c2C(=O)O1)O[C@@]1(C)[C@@H](O)C[C@H]2C(C)(C)C(=O)CC[C@]2(C)[C@@H]1C3 | 14.9 µM | 
2 | C/C(=C\Cc1c(O)cc(O)c2c1C[C@@H](C)OC2=O)CC/C=C(\C)CCC(O)C(C)(C)O (stereo not given in full) |  | inhibition [2]: 40%
3 | CC(=O)O[C@@H]1c2c3c(cc(O)c2C(=O)O[C@@H]1C)O[C@@]1(C)[C@@H](O)C[C@H]2C(C)(C)C(=O)C=C[C@]2(C)[C@@H]1C3 |  | inhibition [3]: inactive

Now from value to molecule, other results behind:

Row | IC50 [1] | Compound | other results
4 | 8.5 µM | C[C@H]1OC(=O)c2c(O)cc3c(c2[C@H]1O)C[C@H]1[C@@]2(C)C=CC(=O)C(C)(C)[C@@H]2C[C@H](O)[C@]1(C)O3 | 
5 | 8.4 µM | C[C@@H]1Cc2c3c(cc(O)c2C(=O)O1)O[C@@]1(C)CC[C@H]2C(C)(C)C(=O)C=C[C@]2(C)[C@@H]1C3 | 
